From US10758534B2 (Vertex Pharmaceuticals Incorporated, priority 2014, dated 2020)

What follows are compounds tested against T1, F508del (Homo sapiens, UniProt P13569, DEL508-508) (assay: Protocol 2: FRET membrane potential optical assay (VIPR), identification of correction compounds). Settings: F508del CFTR modulator activity; compounds of Table 1; read-out: EC30.
T1 construct: expressed in transfected cells
Format: cell-based
Outline: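 Mouse NIH3T3 cells, stable F508del; cpd 16 hrs, 37° C., serum-free; pos ctrl 27° C. 16 hrs. Rinse in Krebs Ringers, dye load, then add 10 μM forskolin + 20 μM genistein with Cl^−-free (gluconate) medium; depolarization by FRET voltage dyes.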

T1 sequence (P13569 with tags, fused parts or gaps DEL508-508): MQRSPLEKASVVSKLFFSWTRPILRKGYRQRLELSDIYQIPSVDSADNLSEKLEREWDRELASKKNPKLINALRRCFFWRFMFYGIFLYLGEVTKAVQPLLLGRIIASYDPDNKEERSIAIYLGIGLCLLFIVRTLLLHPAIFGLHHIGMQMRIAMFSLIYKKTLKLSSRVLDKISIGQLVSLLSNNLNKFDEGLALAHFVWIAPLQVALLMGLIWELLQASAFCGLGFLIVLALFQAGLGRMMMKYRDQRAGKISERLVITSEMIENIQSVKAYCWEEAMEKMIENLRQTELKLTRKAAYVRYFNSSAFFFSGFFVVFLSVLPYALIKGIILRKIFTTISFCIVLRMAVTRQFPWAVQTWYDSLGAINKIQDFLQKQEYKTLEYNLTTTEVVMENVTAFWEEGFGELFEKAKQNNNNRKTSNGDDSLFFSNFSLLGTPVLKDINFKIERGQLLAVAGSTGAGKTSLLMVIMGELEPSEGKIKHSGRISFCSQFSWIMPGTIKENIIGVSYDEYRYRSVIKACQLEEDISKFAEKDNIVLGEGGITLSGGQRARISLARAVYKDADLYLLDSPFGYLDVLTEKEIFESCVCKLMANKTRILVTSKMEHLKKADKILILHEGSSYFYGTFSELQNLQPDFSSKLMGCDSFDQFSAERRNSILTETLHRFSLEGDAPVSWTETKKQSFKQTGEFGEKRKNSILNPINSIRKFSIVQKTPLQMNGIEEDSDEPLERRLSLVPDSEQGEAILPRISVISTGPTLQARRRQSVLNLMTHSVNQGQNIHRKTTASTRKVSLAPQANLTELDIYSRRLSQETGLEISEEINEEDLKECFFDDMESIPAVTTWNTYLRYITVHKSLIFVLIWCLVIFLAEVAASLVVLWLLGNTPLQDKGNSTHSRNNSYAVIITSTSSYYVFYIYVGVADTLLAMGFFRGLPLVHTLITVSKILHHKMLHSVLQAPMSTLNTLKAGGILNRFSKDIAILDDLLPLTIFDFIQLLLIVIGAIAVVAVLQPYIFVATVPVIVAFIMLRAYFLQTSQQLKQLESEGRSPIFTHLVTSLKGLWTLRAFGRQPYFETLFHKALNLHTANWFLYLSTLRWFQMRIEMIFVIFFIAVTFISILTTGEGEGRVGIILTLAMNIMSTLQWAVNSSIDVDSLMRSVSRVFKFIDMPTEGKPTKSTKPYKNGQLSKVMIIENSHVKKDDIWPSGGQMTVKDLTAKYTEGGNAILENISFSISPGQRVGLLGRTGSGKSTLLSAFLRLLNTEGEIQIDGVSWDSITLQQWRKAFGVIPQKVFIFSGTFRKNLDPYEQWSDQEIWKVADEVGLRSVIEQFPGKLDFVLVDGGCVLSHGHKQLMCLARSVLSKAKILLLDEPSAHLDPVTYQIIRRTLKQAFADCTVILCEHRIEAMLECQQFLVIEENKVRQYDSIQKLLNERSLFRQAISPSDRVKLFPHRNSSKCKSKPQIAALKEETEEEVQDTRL

| EC30 [nM] | Compound |
| --- | --- |
| < 3000 | CCOc1cccc(-c2ccc(C(=O)NS(=O)(=O)c3ccc[nH]c3=O)c(N3C[C@@H](C)CC3(C)C)n2)c1 [Compound 2235, 6-(3-ethoxyphenyl)-N-[(2-oxo-1H-pyridin-3-yl)sulfonyl]-2-[(4S)-2,2,4-trimethylpyrrolidin-1-yl]pyridine-3-carboxamide] |
| < 3000 | C[C@@H]1CN(c2nc(-c3cc(F)cc(F)c3)ccc2C(=O)NS(=O)(=O)c2cccc(N)n2)C(C)(C)C1 [Compound 2236, N-[(6-amino-2-pyridyl)sulfonyl]-6-(3,5-difluorophenyl)-2-[(4S)-2,2,4-trimethylpyrrolidin-1-yl]pyridine-3-carboxamide] |
| < 3000 | COc1ccc(Oc2cccc(S(=O)(=O)NC(=O)c3cccnc3N3CC(C)CC3(C)C)n2)cc1 (stereo not drawn) [Compound 2239, N—[[6-(4-methoxyphenoxy)-2-pyridyl]sulfonyl]-2-(2,2,4-trimethylpyrrolidin-1-yl)pyridine-3-carboxamide] |
| 3000 to 10000 | COc1cccc(-c2ccc(C(=O)NS(=O)(=O)N3CC[C@H](N)C3)c(N3C[C@@H](C)CC3(C)C)n2)c1 [Compound 2240, N-[(3S)-3-aminopyrrolidin-1-yl]sulfonyl-6-(3-methoxyphenyl)-2-[(4S)-2,2,4-trimethylpyrrolidin-1-yl]pyridine-3-carboxamide] |
| < 3000 | CCOc1cc(C)cc(-c2ccc(C(=O)NS(=O)(=O)c3cccnc3N)c(N3C[C@@H](C)CC3(C)C)n2)c1 [Compound 2241, N-[(2-amino-3-pyridyl)sulfonyl]-6-(3-ethoxy-5-methyl-phenyl)-2-[(4S)-2,2,4-trimethylpyrrolidin-1-yl]pyridine-3-carboxamide] |
| < 3000 | CC(C)(C)c1ccc(C(=O)NS(=O)(=O)c2cccc(N)n2)c(N2CCC(CC3CC3)C2(C)C)n1 (stereo not drawn) [Compound 2242, N-[(6-amino-2-pyridyl)sulfonyl]-6-tert-butyl-2-[3-(cyclopropylmethyl)-2,2-dimethyl-pyrrolidin-1-yl]pyridine-3-carboxamide] |
| < 3000 | C[C@@H]1CN(c2nc(C3=CCCN(C(=O)Cc4ccccc4)C3)ccc2C(=O)NS(=O)(=O)c2cccc(NC(=O)Cc3ccccc3)n2)C(C)(C)C1 [Compound 2243, N—[[6-[(2-phenylacetyl)amino]-2-pyridyl]sulfonyl]-6-[1-(2-phenylacetyl)-3,6-dihydro-2H-pyridin-5-yl]-2-[(4S)-2,2,4-trimethylpyrrolidin-1-yl]pyridine-3-carboxamide] |
| < 3000 | COc1ccc(-c2ccc(C(=O)NS(=O)(=O)c3cccnc3N)c(N3C[C@@H](C)CC3(C)C)n2)cn1 [Compound 2244, N-[(2-amino-3-pyridyl)sulfonyl]-6-(6-methoxy-3-pyridyl)-2-[(4S)-2,2,4-trimethylpyrrolidin-1-yl]pyridine-3-carboxamide] |
| < 3000 | C[C@@H]1CN(c2nc(-c3cccc(OC(F)(F)F)c3)ccc2C(=O)NS(=O)(=O)c2cccnc2N)C(C)(C)C1 [Compound 2245, N-[(2-amino-3-pyridyl)sulfonyl]-6-[13-(trifluoromethoxy)phenyl]-2-[(4S)-2,2,4-trimethylpyrrolidin-1-yl]pyridine-3-carboxamide] |
| < 3000 | CC(C)Cc1ccc(C(=O)NS(=O)(=O)c2ccccc2)c(N2C[C@@H](C)CC2(C)C)n1 [Compound 2246, N-(benzenesulfonyl)-6-isobutyl-2-[(4S)-2,2,4-trimethylpyrrolidin-1-yl]pyridine-3-carboxamide] |
| 3000 to 10000 | COc1cc(CO)cc(-c2ccc(C(=O)NS(=O)(=O)c3ccc[nH]c3=O)c(N3C[C@@H](C)CC3(C)C)n2)c1 [Compound 2247, 6-[3-(hydroxymethyl)-5-methoxy-phenyl]-N-[(2-oxo-1H-pyridin-3-yl)sulfonyl]-2-[(4S)-2,2,4-trimethylpyrrolidin-1-yl]pyridine-3-carboxamide] |
| < 3000 | CCOc1nn(-c2ccc(C(=O)NS(=O)(=O)c3cccnc3N)c(N3C[C@@H](C)CC3(C)C)n2)cc1C [Compound 2248, N-[(2-amino-3-pyridyl)sulfonyl]-6-(3-ethoxy-4-methyl-pyrazol-1-yl)-2-[(4S)-2,2,4-trimethylpyrrolidin-1-yl]pyridine-3-carboxamide] |
| < 3000 | CC1CN(c2ncccc2C(=O)NS(=O)(=O)c2cccc(OCc3cccc4c3OCO4)n2)C(C)(C)C1 (stereo not drawn) [Compound 2249, N—[[6-(1,3-benzodioxol-4-ylmethoxy)-2-pyridyl]sulfonyl]-2-(2,2,4-trimethylpyrrolidin-1-yl)pyridine-3-carboxamide] |
| < 3000 | CC1CN(c2ncccc2C(=O)NS(=O)(=O)c2cccc(NC3CCCCC3)n2)C(C)(C)C1 (stereo not drawn) [Compound 2250, N—[[6-(cyclohexylamino)-2-pyridyl]sulfonyl]-2-(2,2,4-trimethylpyrrolidin-1-yl)pyridine-3-carboxamide] |
| < 3000 | CC1CN(c2ncccc2C(=O)NS(=O)(=O)c2cccc(N(C)CC(=O)OC(C)(C)C)n2)C(C)(C)C1 (stereo not drawn) [Compound 2251, tert-butyl 2-[methyl-[6-[[2-(2,2,4-trimethylpyrrolidin-1-yl)pyridine-3-carbonyl]sulfamoyl]-2-pyridyl]amino]acetate] |
| 3000 to 10000 | CCOC(=O)N1CCC(Nc2cccc(S(=O)(=O)NC(=O)c3cccnc3N3CC(C)CC3(C)C)n2)CC1 (stereo not drawn) [Compound 2253, ethyl 4-[[6-[[2-(2,2,4-trimethylpyrrolidin-1-yl)pyridine-3-carbonyl]sulfamoyl]-2-pyridyl]amino]piperidine-1-carboxylate] |
| 3000 to 10000 | CC1CN(c2ncccc2C(=O)NS(=O)(=O)c2cccc(N3CCN(c4cnccn4)CC3)n2)C(C)(C)C1 (stereo not drawn) [Compound 2254, N—[[6-(4-pyrazin-2-ylpiperazin-1-yl)-2-pyridyl]sulfonyl]-2-(2,2,4-trimethylpyrrolidin-1-yl)pyridine-3-carboxamide] |
| < 3000 | CC1CN(c2ncccc2C(=O)NS(=O)(=O)c2cccc(N3CCc4ccccc43)n2)C(C)(C)C1 (stereo not drawn) [Compound 2255, N-[(6-indolin-1-yl-2-pyridyl)sulfonyl]-2-(2,2,4-trimethylpyrrolidin-1-yl)pyridine-3-carboxamide] |
| < 3000 | CCOc1cc(C)cc(-c2ccc(C(=O)NS(=O)(=O)c3cccnc3N)c(N3C[C@@H](C)CC3(C)C)n2)n1 [Compound 2256, N-[(2-amino-3-pyridyl)sulfonyl]-6-(6-ethoxy-4-methyl-2-pyridyl)-2-[(4S)-2,2,4-trimethylpyrrolidin-1-yl]pyridine-3-carboxamide] |
| < 3000 | C[C@@H]1CN(c2nc(-c3ccccc3O)ccc2C(=O)NS(=O)(=O)c2cccnc2N)C(C)(C)C1 [Compound 2257, N-[(2-amino-3-pyridyl)sulfonyl]-6-(2-hydroxyphenyl)-2-[(4S)-2,2,4-trimethylpyrrolidin-1-yl]pyridine-3-carboxamide] |
| < 3000 | CC1CN(c2ncc(-c3cc(F)cc(F)c3)cc2C(=O)NS(=O)(=O)c2cccc(N)n2)C(C)(C)C1 (stereo not drawn) [Compound 2259, N-[(6-amino-2-pyridyl)sulfonyl]-5-(3,5-difluorophenyl)-2-(2,2,4-trimethylpyrrolidin-1-yl)pyridine-3-carboxamide] |
| < 3000 | COc1ccc2c(c1)CCN(c1cccc(S(=O)(=O)NC(=O)c3cccnc3N3CC(C)CC3(C)C)n1)C2 (stereo not drawn) [Compound 2260, N—[[6-(6-methoxy-3,4-dihydro-1H-isoquinolin-2-yl)-2-pyridyl]sulfonyl]-2-(2,2,4-trimethylpyrrolidin-1-yl)pyridine-3-carboxamide] |
| < 3000 | CC1CN(c2ncccc2C(=O)NS(=O)(=O)c2cccc(OCc3ccccc3C(F)(F)F)n2)C(C)(C)C1 (stereo not drawn) [Compound 2261, N—[[6-[[2-(trifluoromethyl)phenyl]methoxy]-2-pyridyl]sulfonyl]-2-(2,2,4-trimethylpyrrolidin-1-yl)pyridine-3-carboxamide] |
| < 3000 | CC1CN(c2ncccc2C(=O)NS(=O)(=O)c2cccc(NCCc3ccc(Cl)cc3)n2)C(C)(C)C1 (stereo not drawn) [Compound 2262, N—[[6-[2-(4-chlorophenyl)ethylamino]-2-pyridyl]sulfonyl]-2-(2,2,4-trimethylpyrrolidin-1-yl)pyridine-3-carboxamide] |
| < 3000 | Cc1nc(-c2cccc(Oc3cccc(S(=O)(=O)NC(=O)c4cccnc4N4CC(C)CC4(C)C)n3)c2)no1 (stereo not drawn) [Compound 2263, N—[[6-[3-(5-methyl-1,2,4-oxadiazol-3-yl)phenoxy]-2-pyridyl]sulfonyl]-2-(2,2,4-trimethylpyrrolidin-1-yl)pyridine-3-carboxamide] |
| < 3000 | CC1CN(c2ncccc2C(=O)NS(=O)(=O)c2cccc(OCc3cccc(Cl)c3)n2)C(C)(C)C1 (stereo not drawn) [Compound 2264, N—[[6-[(3-chlorophenyl)methoxy]-2-pyridyl]sulfonyl]-2-(2,2,4-trimethylpyrrolidin-1-yl)pyridine-3-carboxamide] |

| Compound | EC30 [nM] |
| --- | --- |
| CC(C)COc1cc(F)cc(-c2ccc(C(=O)NS(=O)(=O)N3CC4CCC(C3)N4)c(N3C[C@@H](C)CC3(C)C)n2)c1 [Compound 2237, N-(3,8-diazabicyclo[3.2.1]octan-3-ylsulfonyl)-6-(3-fluoro-5-isobutoxy-phenyl)-2-[(4S)-2,2,4-trimethylpyrrolidin-1-yl]pyridine-3-carboxamide] | < 3000 |
| Cc1cc(OCC(C)C)nn1-c1ccc(C(=O)NS(=O)(=O)c2cccnc2N)c(N2C[C@@H](C)CC2(C)C)n1 [Compound 2238, N-[(2-amino-3-pyridyl)sulfonyl]-6-(3-isobutoxy-5-methyl-pyrazol-1-yl)-2-[(4S)-2,2,4-trimethylpyrrolidin-1-yl]pyridine-3-carboxamide] | < 3000 |
| CC1CN(c2ncccc2C(=O)NS(=O)(=O)c2cccc(OC3CCCCCC3)n2)C(C)(C)C1 (stereo not drawn) [Compound 2252, N—[[6-(cycloheptoxy)-2-pyridyl]sulfonyl]-2-(2,2,4-trimethylpyrrolidin-1-yl)pyridine-3-carboxamide] | < 3000 |
| CC(C)COc1cc(F)cc(-c2ccc(C(=O)N(C)S(=O)(=O)c3cccc(N)n3)c(N3C[C@@H](C)CC3(C)C)n2)c1 [Compound 2258, N-[(6-amino-2-pyridyl)sulfonyl]-6-(3-fluoro-5-isobutoxy-phenyl)-N-methyl-2-[(4S)-2,2,4-trimethylpyrrolidin-1-yl]pyridine-3-carboxamide] | < 3000 |
